According to patent US20250127845A1, “MEDICINAL USES OF OLIGOPEPTIDES IN COMBINATION WITH AN ANTIANDROGEN” (HBC IMMUNOLOGY INC., priority 2022, published 2025):
Where “and” joins values, the source holds several entries; their conditions need not be identical. Identical values can stand only once.

Experiments:
Assay type in all cases: cell-based, human
[1] = system: transferrin receptor 1 (TFRC) mRNA; assay: TFRC gene expression by qRT-PCR in PC3 cells
Protocol: (§1) Gene Expression. LNCaP, PC-3, VCaP, and VCaP-EnzR cells were seeded in 24-well plates and maintained in RPMI1640 medium supplemented with 2 mmol/L L-glutamine. 100 U/mL penicillin, […] streptomycin, and 10% heat-inactivated fetal bovine serum at 37° C. in a humidified 5% CO2 atmosphere. […] SPH absent wells (DMSO 0.04%) were used as the negative control. All experiments were run in triplicate.
(§2) Samples were studied for expression of the ferritin heavy chain 1 (FTH1) and transferrin receptor 1 ([…]) genes. Total RNA was extracted from cell pellets using the UPzol reagent (Biotechrabbit), followed by DNAse treatment (DNAse TURBO) according to the manufacturers' protocols. Complementary DNA (cDNA) was synthesized with the High Capacity cDNA Reverse Transcription Kit (Applied Biosystems) using random hexamers. Gene expression levels were measured by qRT-PCR.
(§3) 1 μl of cDNA (corresponding to 50 ng of reverse transcribed RNA) was amplified by Qpcr (QuantStudio™ 6 Flex Real-Time PCR System), using TaqMan™ Universal PCR Master Mix (Catalog No. 4304437) and a TaqMan™ assay (Roche Molecular Systems, Inc., Pleasanton, CA). FTH1 and TFRC gene expression was estimated relative to expression of the housekeeping gene, beta-actin (ACTB), following the standard formula: 2-ΔCt. TaqMan probe IDs used include: (i) FTH1, Hs01694011_s1; (ii) TFRC, Hs00951083_m1; and (iii) ACTB, Hs01060665_g1. […]

[2] = system: ferritin heavy chain 1 (FTH1) mRNA; assay: FTH1 gene expression by qRT-PCR in PC3 cells
Protocol: as §1, §2, §3

[3] = system: ferritin heavy chain 1 (FTH1) mRNA; assay: FTH1 gene expression by qRT-PCR in VCaP cells; details: oligopeptide at 10 μM with […] ENZ
Protocol: as §1, §2, §3

[4] = system: transferrin receptor 1 (TFRC) mRNA; assay: TFRC gene expression by qRT-PCR in VCaP cells; details: oligopeptide at 10 μM with […] ENZ
Protocol: as §1, §2, §3

[5] = system: ferritin heavy chain 1 (FTH1) mRNA; assay: FTH1 gene expression by qRT-PCR in LNCaP cells
Protocol: as §1, §2, §3

LNCaP cells = assay: Clonogenic assay, LNCaP cells; details: for relative percent colony survival / minimal inhibitory concentration (MIC) of bicalutamide: LNCaP; for minimal inhibitory concentration (MIC) of bicalutamide: concentration that begins to inhibit colony formation
Protocol: (§4) Test Solutions. SPH test solutions were prepared by adding 10 μg, 40 μg, or 160 μg of SPH powder to 1 ml of DMEM containing 0.3% FBS+2% DMSO and sonicating for 10 min just prior to use. Bicalutamide, referred to herein as BIC, (Sigma-Aldrich, Catalog No. B9061) test solutions were prepared by adding 0.43 or 4.3 μg to 1 ml (1 μM and 10 μM) of DMEM containing 0.3% FBS+2% DMSO and sonicating for 10 min just prior to use.
(§5) Cell Culture. The C4 subline (CRL-3313™, RRID: CVCL 4783), which was derived from the human prostate carcinoma cell line LNCaP, was obtained from ATCC (Manassas, VA). C4, which is referred to herein as LNCaP, is an exemplary androgen receptor-positive (AR+ve) cell line that has an epithelial-like morphology and a low metastatic potential. The PC-3 cell line (CRL-1435, RRID: CVCL_0035) was obtained from ATCC (Manassas, VA). PC-3 is an exemplary androgen receptor-negative (AR−ve) cell line that has an epithelial morphology and a high metastatic potential. The Vertebral-Cancer of the Prostate (VCaP) cell line was obtained from Sigma-Aldrich, USA (Catalog No. 06020201). VCaP is a human cell line with an epithelial morphology that was established from a metastatic prostate cancer lesion (Korenchuk et al., In Vivo, 15(2):163˜168, 2001). VCaP cells are androgen receptor-positive and express high levels of prostate-specific antigen. The VCaP-EnzR cell line was also obtained from Sigma-Aldrich, USA (Catalog No. SCC421). […] VCaP-EnzR cells are enzalutamide-resistant and therefore are a suitable model for studying castration-resistant prostate cancer. All cell lines were cultured in RPMI1640 supplemented with 2 mmol/L L-glutamine. 100 U/mL penicillin, […] streptomycin, and 10% heat-inactivated fetal bovine serum. All cells were certified negative for Mycoplasma.
(§6) Clonogenic Assay. Confluent cells were trypsinized and seeded at densities ranging from 3000 to 5000 cells in 10 cm Petri dishes, depending on the cell line, as recommended in the ATCC or Sigma-Aldrich product sheets. […] Treatments were applied daily for 5 days without media changes. The colonies were allowed to develop over 12 days, stained with crystal violet and automatically counted using a TC20 Automated Cell Counter (Bio Rad, Hercules, CA). Each assay was internally controlled using untreated cells (cell media+0.1% DMSO). Relative plating efficiencies were expressed as percentages relative to the plating efficiency of untreated cells and reported as the relative percent colony survival value. All experiments were performed in triplicate.
(§7) All oligopeptides were tested in combination with BIC or ENZ in clonogenic assays. […] SPH absent wells (DMSO 0.04%) were used as the negative control. All experiments were run in triplicate.

[6] = system: transferrin receptor 1 (TFRC) mRNA; assay: TFRC gene expression by qRT-PCR in LNCaP cells
Protocol: as §1, §2, §3

PC3 cells = assay: Clonogenic assay, PC3 cells; details: for decrease in survival compared to 10 μM bicalutamide monotreatment: 10 μM oligopeptide with 10 μM bicalutamide
Protocol: as §4, §5, §6, §7

[7] = system: transferrin receptor 1 (TFRC) mRNA; assay: TFRC gene expression by qRT-PCR in VCaP-EnzR cells; details: oligopeptide at 10 μM with […] μM ENZ
Protocol: as §1, §2, §3

[8] = system: ferritin heavy chain 1 (FTH1) mRNA; assay: FTH1 gene expression by qRT-PCR in VCaP-EnzR cells; details: oligopeptide at 10 μM with […] μM ENZ
Protocol: as §1, §2, §3

VCaP cells = assay: Clonogenic assay, VCaP cells; details: 10 μM oligopeptide with […] enzalutamide, p<0.01
Protocol: as §4
(§8) Cell Culture. The C4 subline (CRL-3313™, RRID: CVCL 4783), which was derived from the human prostate carcinoma cell line LNCaP, was obtained from ATCC (Manassas, VA). C4, which is referred to herein as LNCaP, is an exemplary androgen receptor-positive (AR+ve) cell line that has an epithelial-like morphology and a low metastatic potential. The PC-3 cell line (CRL-1435, RRID: CVCL_0035) was obtained from ATCC (Manassas, VA). PC-3 is an exemplary androgen receptor-negative (AR−ve) cell line that has an epithelial morphology and a high metastatic potential. The Vertebral-Cancer of the Prostate (VCaP) cell line was obtained from Sigma-Aldrich, USA (Catalog No. 06020201). […]
(§9) Clonogenic Assay. […] The colonies were allowed to develop over 12 days, stained with crystal violet and automatically counted using a TC20 Automated Cell Counter (Bio Rad, Hercules, CA). […]

VCaP-EnzR cells = assay: Clonogenic assay, VCaP-EnzR cells; details: 10 μM oligopeptide with […] μM enzalutamide, p<0.001
Protocol: as §4, §8, §9

[9] = oligopeptide at 10 μM with 10 μM BIC
[10] = oligopeptide at 10 μM with 10 μM BIC, listed as FT-007-B
[11] = 1 μM BIC alone, relative to ACTB
[12] = oligopeptide at 10 μM with 0.4 μM BIC
[13] = oligopeptide at 10 μM with 0.4 μM BIC, listed as FT-006-B
[14] = oligopeptide at 10 μM with 10 μM BIC, listed as FT-002-B
[15] = oligopeptide at 10 μM with 0.4 μM BIC, listed as FT-005-B
[16] = oligopeptide at 10 μM with 10 μM BIC, listed as FT-005-B
[17] = oligopeptide at 10 μM with 0.4 μM BIC, listed as FT-008-B
[18] = oligopeptide at 10 μM with 10 μM BIC, listed as FT-008-B

Row | Compound | TFRC Fold Change, Average [1, 9] | FTH1 Fold Change, Average [2, 9] | FTH1 Fold Change, Average [3] | TFRC Fold Change, Average [4] | FTH1 Fold Change, Average [5, 12] | TFRC Fold Change, Average [6, 12] | TFRC Fold Change, Average [7] | FTH1 Fold Change, Average [8] | decrease in cell survival compared to […] enzalutamide with 160 SPH (VCaP cells) | relative survival (VCaP-EnzR cells) | decrease in survival compared to 10 μM bicalutamide monotreatment (PC3 cells; PC3) | also measured
1 | PREESDKP [FT-007] | 0.7 | 1.9 | 1.9 | 0.8 |  |  |  |  |  |  |  | TFRC Fold Change (single replicates) [1, 10]: 0.6 and 0.8 (2×); FTH1 Fold Change (single replicates) [2, 10]: 1.9 (2×) and 2.0
2 | CC(O)(CS(=O)(=O)c1ccc(F)cc1)C(=O)Nc1ccc(C#N)c(C(F)(F)F)c1 (centres unmarked) [BIC, bicalutamide, reference compound] |  |  |  |  |  |  |  |  |  |  |  | FTH1 Fold Change (single replicates) [5, 11]: 1.0 (2×) and 1.1; FTH1 Fold Change, Average [5, 11]: 1.0; TFRC Fold Change (single replicates) ([1]; 10 μM BIC alone): 1.0 and 1.1 and 1.2; TFRC Fold Change, Average ([1]; 10 μM BIC alone): 1.1; FTH1 Fold Change (single replicates) ([2]; 10 μM BIC alone): 0.9 and 1.0 and 1.2; FTH1 Fold Change, Average ([2]; 10 μM BIC alone): 1.0; IC50 (LNCaP cells; Homo sapiens, LNCaP clonogenic assay, read-out: IC50 of bicalutamide): 0.4 µM; relative percent colony survival (LNCaP cells; 0.5 μM BIC alone): 85%; relative percent colony survival (LNCaP cells; 1.0 μM BIC alone): 25%; minimal inhibitory concentration (MIC) of bicalutamide (LNCaP cells): 1 µM; minimal inhibitory concentration (MIC) of bicalutamide (LNCaP cells; listed as bicalutamide): 0.5 µM; TFRC Fold Change (single replicates) [6, 11]: 1.0 (2×) and 1.2; TFRC Fold Change, Average [6, 11]: 1.1; IC50 (PC3 cells; Homo sapiens, PC-3, PC3 clonogenic assay, read-out: IC50 of bicalutamide): 10 µM; relative percent colony survival (PC3 cells; PC3, 10 μM BIC alone): 52%; minimal inhibitory concentration (MIC) of bicalutamide (PC3 cells; PC3, concentration that begins to inhibit colony formation): 10 µM
3 | REESDKPMY [FT-006] |  |  |  |  | 1.8 | 0.9 | 0.6 | 2.6 |  |  |  | FTH1 Fold Change (single replicates) [5, 13]: 1.9 (2×) and 1.6; TFRC Fold Change (single replicates) [6, 13]: 0.9 (2×) and 0.8
4 | REESGEP [FT-002, synthetic oligopeptide; -B / -E: tested with bicalutamide / enzalutamide] | 0.7 | 2.0 | 2.2 | 0.6 | 2.0 | 0.7 | 0.5 | 3.6 | approximately 40% | 11% | approximately 70% | FTH1 Fold Change (single replicates) ([5]; oligopeptide at 10 μM with 0.4 μM BIC, listed as FT-002-B): 2.1 (2×) and 1.9; TFRC Fold Change (single replicates) [1, 14]: 0.7 and 0.8 and 0.6; FTH1 Fold Change (single replicates) [2, 14]: 2.0 (2×) and 2.1; TFRC Fold Change (single replicates) [6, 12]: 0.7
5 | LDEESGEP [FT-005, synthetic oligopeptide; -B / -E: tested with bicalutamide / enzalutamide] | 0.6 | 2.1 | 2.3 | 0.6 | 2.2 | 0.6 | 0.5 | 3.2 | approximately 40% | 11% | approximately 70% | FTH1 Fold Change (single replicates) [5, 15]: 2.2 (2×) and 2.3; TFRC Fold Change (single replicates) [1, 16]: 0.7 and 0.5 (2×); FTH1 Fold Change (single replicates) [2, 16]: 2.2 and 2.1 (2×); TFRC Fold Change (single replicates) [6, 15]: 0.7 and 0.6 (2×)
6 | REESGEL [FT-008] | 0.9 | 1.8 | 2.2 | 0.7 | 2.0 | 0.8 | 0.6 | 2.5 |  |  |  | FTH1 Fold Change (single replicates) [5, 17]: 1.8 and 1.9 and 2.2; TFRC Fold Change (single replicates) [1, 18]: 0.8 and 0.9 (2×); FTH1 Fold Change (single replicates) [2, 18]: 1.8 (2×) and 1.9; TFRC Fold Change (single replicates) [6, 17]: 0.8 (2×) and 0.9; TFRC Fold Change (single replicates) [4]: 0.7
